The values that follow come from article PMC7181245, “Antiestrogenic Activity and Possible Mode of Action of Certain New Nonsteroidal Coumarin-4-acetamides” (Molecules, 2020).

Read-outs that look alike come from different tables or passages of the source.

Broadly, the IC50 is the midpoint of a concentration-inhibition curve. For orientation: melting point means the temperature of the solid-liquid transition.

Data set [1] has as its system MCF-7 cell line (ER+ breast cancer cell line). Description: MTT cytotoxicity assay, MCF-7 cell line. Particulars: for IC50: Homo sapiens, MCF7, read-out: IC50 (μM) ± S.E.M MCF-7 (cytotoxicity). Here is the method:
(§1) The cytotoxic activity of the synthesized compounds IIIa–h was evaluated in vitro against the human breast adenocarcinoma MCF7 (ER^+ breast cancer cell line) and the MDA-MB-231 (triple-negative breast cancer cell line, TNBC), using camptothecin as a pyranone-bearing reference standard.
(§2) The cytotoxicity of compounds Ia,b, IIa,b, and IIIa–h against the MCF-7 cell line (ER+ breast cancer cell line) and MDA-MB-231 (triple-negative breast cancer cell line, TNBC) was determined using camptothecin as a pyranone-bearing reference standard.
A general note: Formazan colour is commonly taken as a measure of viable cells.

Data set [2] concerns MDA-MB-231 (triple-negative breast cancer cell line, TNBC). Description: MTT cytotoxicity assay, MDA-MB-231 cell line. Here is the method: as §1, §2
Data set [3] deals with T1, aromatase (Homo sapiens, UniProt P11511).
T1 sequence (P11511 1-503): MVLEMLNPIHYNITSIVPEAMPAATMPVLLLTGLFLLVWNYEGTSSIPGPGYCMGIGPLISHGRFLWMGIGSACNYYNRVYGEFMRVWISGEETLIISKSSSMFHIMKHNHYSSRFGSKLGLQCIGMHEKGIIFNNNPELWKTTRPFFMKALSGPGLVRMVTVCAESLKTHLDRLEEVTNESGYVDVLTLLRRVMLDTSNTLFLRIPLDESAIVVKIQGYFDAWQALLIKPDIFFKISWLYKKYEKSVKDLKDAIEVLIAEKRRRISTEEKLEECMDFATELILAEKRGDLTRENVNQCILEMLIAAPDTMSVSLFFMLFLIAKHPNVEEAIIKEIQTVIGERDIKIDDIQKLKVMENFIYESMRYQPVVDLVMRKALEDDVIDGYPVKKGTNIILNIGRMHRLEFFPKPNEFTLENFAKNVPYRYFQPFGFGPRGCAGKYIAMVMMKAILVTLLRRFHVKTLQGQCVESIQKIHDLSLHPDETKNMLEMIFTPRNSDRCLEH
The data set is described as follows: In vitro aromatase inhibition (sandwich enzyme immunoassay). The settings on record: for IC50: IC50 (μM) ± S.E.M. (aromatase inhibition activity).
Text: Sandwich enzyme immunoassay was adopted for aromatase inhibition assessment [38].

Data set [4] concerns estrogen-dependent human breast cancer MCF-7 cell proliferation induced by 17-β-estradiol. The data set is described as follows: In vitro antiestrogenic activity: MCF-7 cell proliferation assay (MTT) in the presence of 17-β-estradiol. Type of data set: cell-based. The settings on record: inhibition of MCF-7 cell proliferation induced by 17-β-estradiol, read-out: IC50 (μM) ± S.E.M. MCF-7 (in vitro antiestrogenic activity). Here is the method: The in vitro antiestrogenic activity of the selected target compounds IIIa,b, IIId, and IIIf,g was studied through an estrogen-dependent human breast cancer MCF-7 cell proliferation assay in the presence of 17-β-estradiol. The ability of the tested compounds to inhibit cell proliferation induced by 17-β-estradiol was determined (Table 3 and Figure 4).
The antiestrogenic activity of the test compounds was examined by performing a 3-(4,5-dimethylthiazol-2-yl)-2,5-diphenyl tetrazolium bromide (MTT) assay of the MCF-7 cell line. In this experiment, MCF-7 cells were treated with 17β-estradiol (+ve cell proliferation compound). The effect of various concentrations of the tested compounds on cell proliferation in the presence of 17β-estradiol was measured.

Data set [5] deals with MCF-7. The arrangement: method as in PMID 9391160, PMID 15177442. The settings on record: cited from earlier work.
Setting [6] is: Homo sapiens, MDA-MB-231, read-out: IC50 (μM) ± S.E.M MDA-MB-231 (cytotoxicity), MTT assay, MDA-MB-231 cells.
Where [7] appears, read: ratio of IC50 values vs camptothecin.

Take `COC(=O)Cc1cc(=O)oc2ccc(OC)cc12` [Ia, Methyl (6-methoxy-2-oxo-2H-chromen-4-yl)acetate]: the melting point was in the range of 153 to 154 °C. Moreover, the IC50 in data set [1] was found to be 13.9 ± 1.15 µM. The IC50 in data set [2] (setting [6]) is 47.5 ± 2.51 µM.

The compound `COc1ccc2c(CC(=O)Nc3ccc(Br)cc3)cc(=O)oc2c1` [IIIg, N-(4-Bromophenyl)-2-(7-methoxy-2-oxo-2H-chromen-4-yl)acetamide] gave a melting point of 212 to 213 °C. For the same compound, in data set [1], the IC50 was 0.72 ± 0.02 µM. Moreover, in data set [3], inhibition was half-maximal at 27.1 ± 1.38 µM (IC50). For the same compound, the IC50 in data set [4] (Homo sapiens, MCF7) is 64.4 ± 4.12 µM. For the same compound, in data set [2] (setting [6]), the IC50 is 90.8 ± 3.84 µM.

Compound `COc1ccc2c(CC(=O)Nc3ccccc3)cc(=O)oc2c1` [IIIf, 2-(7-Methoxy-2-oxo-2H-chromen-4-yl)-N-phenylacetamide] returned a melting point of 217 to 218 °C. In addition, the IC50 in data set [1] stood at 5.69 ± 0.08 µM. This compound also gave an IC50 in data set [3] of 332 ± 18.2 µM. For the same compound, the IC50 in data set [4] (Homo sapiens, MCF7) stood at 99.6 ± 6.39 µM. Also, the IC50 in data set [2] (setting [6]) was 6.9 µM. In data set [2] (human), this compound came in with an IC50 of 6.94 ± 0.41 µM.

Consider `COc1ccc2oc(=O)cc(CC(=O)Nc3ccc(Br)cc3)c2c1` [IIId, N-(4-Bromophenyl)-2-(6-methoxy-2-oxo-2H-chromen-4-yl)acetamide], for which the melting point fell in the range of 202 to 203 °C. Further, the IC50 in data set [1] was 2.8 ± 0.04 µM. The same compound gave an IC50 in data set [3] of 69.9 ± 3.91 µM. The IC50 in data set [4] (Homo sapiens, MCF7) worked out at 214 ± 12.1 µM. Moreover, the IC50 in data set [2] (setting [6]) worked out at 22.8 ± 1.54 µM.

`COc1ccc2oc(=O)cc(CC(=O)O)c2c1` [IIa, (6-Methoxy-2-oxo-2H-chromen-4-yl)acetic acid]: the melting point is 178 to 179 °C. Besides, the IC50 in data set [1] was found to be 1 ± 0.03 µM. The compound further gave an IC50 in data set [3] of 32.2 ± 2.39 µM. Moreover, the IC50 in data set [2] (setting [6]) was 80.2 ± 4.23 µM.

The compound `COc1ccc2oc(=O)cc(CC(=O)N3CCCCC3)c2c1` [IIIa, 6-Methoxy-4-(2-oxo-2-(piperidin-1-yl)ethyl)-2H-chromen-2-one] registered a melting point of 167 to 168 °C. For the same compound, the IC50 in data set [1] was found to be 1.82 ± 0.03 µM. The compound further registered an IC50 in data set [3] of 22.5 ± 3.4 µM. Further, the IC50 in data set [4] (Homo sapiens, MCF7) came out at 62 ± 4.02 µM. Besides, the IC50 in data set [2] (setting [6]) was 38.2 ± 1.52 µM.

For the compound `CC(C)COC(=O)c1ccccc1C(=O)O` [Monoisobutyl phthalate (MIBP), Monoisobutyl phthalate, reference compound], the IC50 in data set [4] came to 46.4 ± 3.14 µM.

On to `COC(=O)Cc1cc(=O)oc2cc(OC)ccc12` [Ib, Methyl (7-methoxy-2-oxo-2H-chromen-4-yl)acetate], for which the IC50 in data set [1] is 1.44 ± 0.02 µM; in data set [3], 14.5 ± 1.32 µM; in data set [2] (setting [6]) it was 1 ± 0.04 µM. In addition, the “potency relative to the reference standard camptothecin, MDA-MB-231” value in data set [2] (setting [7]) is “about 19 times”.

In the case of `O=c1oc2cc(O)ccc2c(Cc2ccc(OCCN3CCCCC3)cc2)c1-c1ccccc1` [SP500263], the “agonist activity in the MCF-7 proliferation assay” value in data set [5] is reported as “undesirable agonist activity”.

`COc1ccc2c(CC(=O)Nc3ccc(OC)c(O)c3)cc(=O)oc2c1` [IIIh, N-(3-Hydroxy-4-methoxyphenyl)-2-(7-methoxy-2-oxo-2H-chromen-4-yl)acetamide] returned a melting point of 188 to 189 °C. Besides, in data set [1], the IC50 came to 5100 ± 241 µM. Also, the IC50 in data set [2] (setting [6]) worked out at 14.1 ± 0.61 µM.

Take `COc1ccc2oc(=O)cc(CC(=O)Nc3ccc(OC)c(O)c3)c2c1` [IIIe, N-(3-Hydroxy-4-methoxyphenyl)-2-(6-methoxy-2-oxo-2H-chromen-4-yl)acetamide]: the melting point fell in the range of 173 to 174 °C. Besides, the IC50 in data set [1] was 15.5 ± 1.24 µM. In addition, in data set [3], the “aromatase inhibition activity (in words)” value is given as “moderate inhibitory activity” and the IC50 stood at 17.4 µM. Further, in data set [2] (setting [6]), the IC50 stood at 2.1 µM. Moreover, the IC50 in data set [2] (human) is 2.14 ± 0.06 µM.

In turn, `COc1ccc2oc(=O)cc(CC(=O)Nc3ccccc3)c2c1` [IIIc, 2-(6-Methoxy-2-oxo-2H-chromen-4-yl)-N-phenylacetamide] registered a melting point of 219 to 220 °C. Also, in data set [1], the 50% inhibitory concentration (IC50) came to 10.9 ± 0.99 µM. The compound also yielded an IC50 in data set [3] of 1100 ± 52.4 µM. The IC50 in data set [2] (setting [6]) is 4.6 ± 0.32 µM.

For the compound `COc1ccc2c(CC(=O)O)cc(=O)oc2c1` [IIb, (7-methoxy-2-oxo-2H-chromen-4-yl)acetic acid], the values for the IC50 in data set [1] and in data set [2] (setting [6]) were 8.08 ± 0.25 µM and 216 ± 13.2 µM, respectively.

As to `CC[C@@]1(O)C(=O)OCc2c1cc1n(c2=O)Cc2cc3ccccc3nc2-1` [Camptothecin, reference compound], the IC50 in data set [1] was determined as 4.41 ± 0.28 µM; in data set [2] (setting [6]) it was 19.2 ± 1.14 µM.

As for `COc1ccc2c(CC(=O)N3CCCCC3)cc(=O)oc2c1` [IIIb, 7-Methoxy-4-(2-oxo-2-(piperidin-1-yl)ethyl)-2H-chromen-2-one], the melting point lay within 135 to 136 °C. In addition, the IC50 in data set [1] is 0.32 ± 0.04 µM. Besides, the “potency relative to the reference standard camptothecin, MCF-7” value in data set [1] (setting [7]) is recorded as “about 14 fold”. For the same compound, the IC50 in data set [3] was found to be 89.1 ± 6.2 µM. The IC50 in data set [4] (Homo sapiens, MCF7) turned out to be 29.5 ± 3.25 µM. Also, the IC50 in data set [2] (setting [6]) came out at 12.9 ± 1.17 µM.
